Measurements taken from the supplement of paper PMC11061612.

Key:
Assay in all cases: combination Emax (second highest fraction inhibited in the dose matrix, 72 h); higher = more inhibition; extreme values may be limits of the assay
[1] = tested on: 8505C (Thyroid Gland Carcinoma)
How it was run: (§1)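 After 24 hours at 37°C and 5% CO2 in 1536-well plates, cells in DMEM/F12 or RPMI plus 10% FBS received two-drug dose matrices for 72 hours. Viability came from CellTiter-Glo 2.0 luminescence and was scaled as inhibition, anchored at 0 by vehicle wells and at 1 by blank wells. Combination Emax is taken as the second-highest inhibition in the matrix, and Bliss excess as the observed combination effect less EA + EB − EA·EB, with EA and EB the single-agent effects.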

[2] = tested on: DAN-G (Pancreatic Carcinoma)
How it was run: as §1

[3] = tested on: ESO51 (Esophageal Adenocarcinoma)
How it was run: as §1

G-361 (Melanoma) = tested on: G-361 (Melanoma)
How it was run: as §1

[4] = tested on: H9 (T-Cell Non-Hodgkin's Lymphoma)
How it was run: as §1

[5] = tested on: HCC1187 (Breast Carcinoma)
How it was run: as §1

[6] = tested on: HCC1419 (Breast Carcinoma)
How it was run: as §1

[7] = tested on: JHH-4 (Hepatocellular Carcinoma)
How it was run: as §1

[8] = tested on: KMS-12-BM (Plasma Cell Myeloma)
How it was run: as §1

[9] = tested on: KP-3 (Pancreatic Carcinoma)
How it was run: as §1

[10] = tested on: MOLM-13 (Acute Myeloid Leukemia)
How it was run: as §1

[11] = tested on: NCCIT (Other Solid Carcinomas)
How it was run: as §1

NCI-H2731 (Mesothelioma) = tested on: NCI-H2731 (Mesothelioma)
How it was run: as §1

[12] = tested on: NCI-H526 (Small Cell Lung Carcinoma)
How it was run: as §1

[13] = tested on: PC-3 (Prostate Carcinoma)
How it was run: as §1

RD (Rhabdomyosarcoma) = tested on: RD (Rhabdomyosarcoma)
How it was run: as §1

[14] = tested on: RPMI-8226 (Plasma Cell Myeloma)
How it was run: as §1

[15] = tested on: SNU-398 (Hepatocellular Carcinoma)
How it was run: as §1

[16] = tested on: SUP-B15 (B-Lymphoblastic Leukemia)
How it was run: as §1

[17] = tested on: T-T (Esophageal Squamous Cell Carcinoma)
How it was run: as §1

Row | Compound | combination Emax [1] | combination Emax [2] | combination Emax [3] | combination Emax (G-361 (Melanoma)) | combination Emax [4] | combination Emax [5] | combination Emax [6] | combination Emax [7] | combination Emax [8] | combination Emax [9] | combination Emax [10] | combination Emax [11] | combination Emax (NCI-H2731 (Mesothelioma)) | combination Emax [12] | combination Emax [13] | combination Emax (RD (Rhabdomyosarcoma)) | combination Emax [14] | combination Emax [15] | combination Emax [16] | combination Emax [17]
1 | COc1cccc(OCCCN)c1-c1cc(Nc2cnc(C#N)cn2)n[nH]1 [Prexasertib] + Cc1cc2ncnn2cc1Nc1ncc2c(n1)n(C1CCOCC1)c(=O)n2C [AZD7648] (first compound max 1 µM, 7x7, partner max 10 µM) | 0.483 | 0.816 | 0.777 | 0.696 | 1 | 0.614 | 0.288 | 0.62 | 1 | 0.465 | 1 | 0.801 | 0.385 | 0.92 | 0.358 | 0.571 | 0.995 | 0.441 | 0.966 | 0.65
2 | Cc1c2c(nn1C)CSCc1cc(n(C)n1)CSc1cc(c3ccccc3c1)OCCCc1c(C(=O)O)n(C)c3c-2c(Cl)ccc13 [AZD5991] + C[C@@H]1COCCN1C2=NC(=NC(=C2)C3(CC3)[S@](=N)(=O)C)C4=C5C=CNC5=NC=C4 [AZD6738] (first compound max 1 µM, 7x7, partner max 10 µM) | 0.34 | 0.737 | 0.747 | 1 | 1 | 1 | 0.275 | 0.369 | 1 | 0.377 | 1 | 0.864 | 0.294 | 0.833 | 0.482 | 0.739 | 1 | 1 | 1 | 0.932
3 | COc1nnc2ccc(N3CCC(c4ccc(OCCN5CCN(C)C(=O)[C@H]5C)cc4)CC3)nn12 [AZD5153] + CCN(CCO)CCCOc1ccc2c(Nc3cc(CC(=O)Nc4cccc(F)c4)[nH]n3)ncnc2c1 [AZD2811] (first compound max 1 µM, 7x7, partner max 1 µM) | 0.5 | 0.409 | 0.639 | 0.649 | 1 | 0.912 | 0.355 | 0.367 | 0.998 | 0.281 | 1 | 0.832 | 0.489 | 0.944 | 0.39 | 0.605 | 0.8 | 0.628 | 1 | 0.582
4 | COc1cc2c(cc1OCCCCCOc1cc3c(cc1OC)C(=O)N1C=C(C)C[C@H]1C=N3)N=C[C@@H]1CC(C)=CN1C2=O [SG3199] + O=C(c1cc(Cc2n[nH]c(=O)c3ccccc23)ccc1F)N1CCN(C(=O)C2CC2)CC1 [Olaparib] (first compound max 0.001 µM, 7x7, partner max 10 µM) | 0.202 | 0.137 | 0.138 | 0.0716 | 0.0468 | 0.204 | 0.0746 | 0.149 | 0.136 | 0.027 | 0.554 | 0.0982 | 0.0512 | 0.503 | 0.159 | 0.0922 | 0.165 | 0.175 | 0.921 | 0.114
5 | CC1(C)CCC(CN2CCN(c3ccc(C(=O)NS(=O)(=O)c4ccc(NCC5CCOCC5)c([N+](=O)[O-])c4)c(Oc4cnc5[nH]ccc5c4)c3)CC2)=C(c2ccc(Cl)cc2)C1 [Venetoclax] + Cc1cc2ncnn2cc1Nc1ncc2c(n1)n(C1CCOCC1)c(=O)n2C [AZD7648] (first compound max 1 µM, 7x7, partner max 10 µM) | 0.187 | 0.363 | 0.131 | 0.152 | 0.396 | 0.142 | 0.383 | 0.208 | 1 | 0.13 | 0.956 | 0.289 | 0.157 | 0.657 | 0.263 | 0.183 | 0.438 | 0.29 | 1 | 0.172
6 | Cc1c2c(nn1C)CSCc1cc(n(C)n1)CSc1cc(c3ccccc3c1)OCCCc1c(C(=O)O)n(C)c3c-2c(Cl)ccc13 [AZD5991] + C=CCn1c(=O)c2cnc(Nc3ccc(N4CCN(C)CC4)cc3)nc2n1-c1cccc(C(C)(C)O)n1 [AZD1775] (first compound max 1 µM, partner max 1 µM) | 0.27 | 0.883 | 0.591 | 0.967 | 1 | 0.998 | 0.198 | 0.545 | 1 | 0.269 | 1 | 0.86 | 0.298 | 0.818 | 0.245 | 0.788 | 0.984 | 1 | 1 | 0.915
7 | CC1(C)CCC(CN2CCN(c3ccc(C(=O)NS(=O)(=O)c4ccc(NCC5CCOCC5)c([N+](=O)[O-])c4)c(Oc4cnc5[nH]ccc5c4)c3)CC2)=C(c2ccc(Cl)cc2)C1 [Venetoclax] + C1CN(CCC1(C(=O)N[C@@H](CCO)C2=CC=C(C=C2)Cl)N)C3=NC=NC4=C3C=CN4 [Capivasertib] (first compound max 1 µM, 7x7, partner max 3 µM) | 0.139 | 0.195 | 0.11 | 0.159 | 0.541 | 0.183 | 0.53 | 0.119 | 1 | 0.137 | 1 | 0.398 | 0.27 | 0.769 | 0.365 | 0.198 | 0.172 | 0.217 | 1 | 0.221
8 | Cc1cc2ncnn2cc1Nc1ncc2c(n1)n(C1CCOCC1)c(=O)n2C [AZD7648] + C=CCn1c(=O)c2cnc(Nc3ccc(N4CCN(C)CC4)cc3)nc2n1-c1cccc(C(C)(C)O)n1 [AZD1775] (first compound max 10 µM, partner max 1 µM) | 0.175 | 0.631 | 0.576 | 0.545 | 0.969 | 0.304 | 0.341 | 0.483 | 0.937 | 0.282 | 1 | 0.853 | 0.416 | 0.721 | 0.263 | 0.32 | 0.348 | 0.533 | 0.553 | 0.461
9 | CC1(C)CCC(CN2CCN(c3ccc(C(=O)NS(=O)(=O)c4ccc(NCC5CCOCC5)c([N+](=O)[O-])c4)c(Oc4cnc5[nH]ccc5c4)c3)CC2)=C(c2ccc(Cl)cc2)C1 [Venetoclax] + Cn1cnc2c(F)c(Nc3ccc(Br)cc3Cl)c(C(=O)NOCCO)cc21 [Selumetinib] (first compound max 1 µM, 7x7, partner max 3 µM) | 0.36 | 0.233 | 0.384 | 0.702 | 0.931 | 0.129 | 0.201 | 0.188 | 1 | 0.135 | 1 | 0.112 | 0.0907 | 0.625 | 0.152 | 0.217 | 0.325 | 0.352 | 1 | 0.221
10 | CN(CCO)CC[C@H](CSc1ccccc1)Nc1ccc(S(=O)(=O)NC(=O)c2ccc(N3CCC([C@@H](O)c4ccccc4-c4ccc(Cl)cc4)CC3)cc2)cc1S(=O)(=O)C(F)(F)F [AZD4320] + CCN(CCO)CCCOc1ccc2c(Nc3cc(CC(=O)Nc4cccc(F)c4)[nH]n3)ncnc2c1 [AZD2811] (first compound max 1 µM, 7x7, partner max 1 µM) | 0.369 | 0.355 | 0.233 | 0.41 | 0.978 | 0.914 | 0.0755 | 0.17 | 1 | 0.0781 | 1 | 0.181 | 0.492 | 0.961 | 0.366 | 0.856 | 0.986 | 0.593 | 1 | 0.282
11 | CN(CCO)CC[C@H](CSc1ccccc1)Nc1ccc(S(=O)(=O)NC(=O)c2ccc(N3CCC([C@@H](O)c4ccccc4-c4ccc(Cl)cc4)CC3)cc2)cc1S(=O)(=O)C(F)(F)F [AZD4320] + C[C@@H]1COCCN1C2=NC(=NC(=C2)C3(CC3)[S@](=N)(=O)C)C4=C5C=CNC5=NC=C4 [AZD6738] (first compound max 1 µM, 7x7, partner max 10 µM) | 0.59 | 0.765 | 0.861 | 0.629 | 1 | 0.536 | 0.367 | 0.385 | 1 | 0.486 | 1 | 0.727 | 0.328 | 0.977 | 0.584 | 0.781 | 1 | 0.77 | 1 | 0.561
12 | COc1nnc2ccc(N3CCC(c4ccc(OCCN5CCN(C)C(=O)[C@H]5C)cc4)CC3)nn12 [AZD5153] + C[C@@H]1COCCN1C2=NC(=NC(=C2)C3(CC3)[S@](=N)(=O)C)C4=C5C=CNC5=NC=C4 [AZD6738] (first compound max 1 µM, 7x7, partner max 10 µM) | 0.807 | 0.726 | 0.823 | 0.872 | 1 | 0.696 | 0.295 | 0.714 | 1 | 0.409 | 1 | 0.901 | 0.699 | 0.947 | 0.5 | 0.748 | 0.905 | 0.786 | 1 | 0.587
